Data published in patent US20090105349A1, “ANDROGEN MODULATORS” (WARNER-LAMBERT COMPANY LLC, priority 2004, published 2009).
Changes are numbered by the printed parent chain. Where two headings read alike, the source gives them in different places.

Assays:
[1] = molecular target: T1, hAR (human androgen receptor) (Homo sapiens, UniProt P10275); experiment: Competitive hAR binding assay with 3H-DHT tracer
T1 construct: made in house; host or cells: baculovirus/Sf9 insect cells (crude extract)
T1 sequence (P10275 1-920): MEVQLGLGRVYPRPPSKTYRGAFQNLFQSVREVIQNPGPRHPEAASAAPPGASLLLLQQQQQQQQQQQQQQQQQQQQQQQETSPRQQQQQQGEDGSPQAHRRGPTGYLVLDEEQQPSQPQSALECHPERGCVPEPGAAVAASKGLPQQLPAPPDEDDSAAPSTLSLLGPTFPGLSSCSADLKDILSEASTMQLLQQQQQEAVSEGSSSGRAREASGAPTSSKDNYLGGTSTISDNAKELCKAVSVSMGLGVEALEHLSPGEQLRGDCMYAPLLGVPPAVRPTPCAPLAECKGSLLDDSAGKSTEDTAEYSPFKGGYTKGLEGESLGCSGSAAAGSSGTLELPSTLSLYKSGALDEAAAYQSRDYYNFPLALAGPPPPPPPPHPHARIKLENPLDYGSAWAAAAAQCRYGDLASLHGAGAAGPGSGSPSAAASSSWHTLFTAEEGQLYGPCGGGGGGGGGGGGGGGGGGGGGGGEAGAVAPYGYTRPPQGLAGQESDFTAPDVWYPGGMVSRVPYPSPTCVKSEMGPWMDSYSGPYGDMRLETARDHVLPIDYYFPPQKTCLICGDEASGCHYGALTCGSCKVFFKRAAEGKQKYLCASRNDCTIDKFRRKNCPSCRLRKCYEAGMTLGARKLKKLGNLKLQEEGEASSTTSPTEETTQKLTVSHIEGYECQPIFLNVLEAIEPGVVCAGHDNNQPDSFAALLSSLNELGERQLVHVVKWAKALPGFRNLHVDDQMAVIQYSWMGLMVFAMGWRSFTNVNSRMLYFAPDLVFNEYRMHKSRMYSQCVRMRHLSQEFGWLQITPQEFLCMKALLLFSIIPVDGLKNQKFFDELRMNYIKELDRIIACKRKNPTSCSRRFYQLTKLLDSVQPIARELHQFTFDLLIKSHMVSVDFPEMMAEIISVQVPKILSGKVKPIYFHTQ
Protocol: The description below describes how the assay was carried out.
Competitive binding analysis was performed on baculovirus/Sf9 generated hAR extracts in the presence or absence of different concentrations of test agent and a fixed concentration of ^3H-dihydrotestosterone (3H-DHT) as tracer. […] Subsequently, the binding reactions are washed three times to completely remove excess unbound ^3H-DHT. hAR bound ^3H-DHT levels are determined in the presence of compounds (i.e. competitive binding) and compared to levels bound when no competitor is present (i.e. maximum binding). Compound binding affinity to the hAR is expressed as the concentration of compound at which one half of the maximum binding is inhibited.

[2] = molecular target: T2, androgen receptor in MDA-MB453-MMTV clone 54-19 cells (Homo sapiens, UniProt P10275); experiment: AR antagonist cell assay (MMTV-luciferase reporter); type: cell-based
T2 sequence (P10275 1-920 Q868H): T1 sequence (P10275 1-920) with Q868H
Protocol: The compounds ability to antagonize the effects of androgen on the androgen receptor were determined in a whole cell assay as described immediately below.
This cell line is a stable transfected cell line with MDA-MB453 cell background (a human breast tumor cell line expressing androgen receptor). A MMTV minimal promoter containing ARE was first cloned in front of a firefly luciferase reporter gene. Then the cascade was cloned into transfection vector pUV120puro. […] Puromycin resistant stable cell line was selected.
Plating medium: DMEM (phenol red free), 10% charcoal treated HyClone serum, 1% L-glutamine
Assay medium: DMEM (phenol red free), 1% charcoal treated HyClone serum, 1% L-glutamine, and 1% penicillin/streptomycin
Assay procedure: • 1. Cells are maintained in culture medium, splitting cells when they reach 80-90% confluence • 2. To test compounds, 10,000 cells/well are plated to opaque 96 cell culture plate in 100 ul/well plating medium, culture for overnight at 37° C. in cell culture incubator • 3. […] Add 10 ul/well freshly prepared DHT (final concentration at […]) to each well, incubate at 37° C. for 17 hr (overnight) • 5.
The results are reported as the mean of multiple tests as described below (the numbers of tests are indicated in the footnote). N.D. denotes that the compound was not tested.

[3] = baculovirus/Sf9 hAR extract, 1 nM 3H-DHT, one hour at 4° C, mean of multiple tests, read-out: AR Binding IC50
[4] = read-out: AR Cell IC50; MDA-MB453-MMTV clone 54-19, inhibition of DHT induced luciferase, 17 hr; mean of multiple tests
[5] = MDA-MB453-MMTV clone 54-19, inhibition of DHT induced luciferase, 17 hr; mean of multiple tests; read-out: AR Cell IC50

| Compound | IC50 [1, 3] | IC50 [2, 4] | IC50 [1] | IC50 [2, 5] |
| --- | --- | --- | --- | --- |
| N#CCOc1ccccc1Oc1ccc(C#N)c(C(F)(F)F)c1 [Example 123, 4-(2-cyanomethoxy-phenoxy)-2-trifluoromethyl-benzonitrile] | 141 nM | 54 nM |  |  |
| Cc1ccc(C)c(Oc2ccc(C#N)c(Cl)c2)c1 [Example 68, 2-Chloro-4-(2,5-dimethyl-phenoxy)-benzonitrile] |  |  | 69 nM | > 1000 nM |
| CC(=O)c1ccccc1Oc1ccc(C#N)c(C(F)(F)F)c1 [Example 88, 4-(2-Acetyl-phenoxy)-2-trifluoromethyl-benzonitrile] | 276 nM |  |  | 123 nM |
| Cc1ccc(Oc2ccc(C#N)c(C(F)(F)F)c2)c(C)c1 [Example 99, 4-(2,4-Dimethyl-phenoxy)-2-trifluoromethyl-benzonitrile] |  |  | 46 nM | 899 nM |
| N#Cc1ccc(Oc2cccc3ccccc23)cc1Cl [Example 40, 2-Chloro-4-(naphthalen-1-yloxy)-benzonitrile] |  | 90 nM | 31 nM |  |
| N#Cc1ccc(Oc2ccccc2)cc1Cl [Example 66, 2-Chloro-4-phenoxy-benzonitrile] | 147 nM |  |  | 333 nM |
| Cc1cc(F)ccc1Oc1ccc(C#N)c(Cl)c1 [Example 60, 2-Chloro-4-(4-fluoro-2-methyl-phenoxy)-benzonitrile] |  | 72 nM | 48 nM |  |
| C=CCc1ccccc1Oc1ccc(C#N)c(Cl)c1 [Example 51, 4-(2-Allyl-phenoxy)-2-chloro-benzonitrile] |  |  | 62 nM | 252 nM |
| CSc1ccccc1Oc1ccc(C#N)c(Cl)c1 [Example 3, 2-Chloro-4-(2-methylsulfanyl-phenoxy)-benzonitrile] |  | < 0.32 nM | 47 nM |  |
| N#Cc1ccc(Oc2ccc(O)cc2)cc1C(F)(F)F [Example 80, 4-(4-Hydroxy-phenoxy)-2-trifluoromethyl-benzonitrile] | 207 nM | 62 nM |  |  |
| CCc1ccccc1Oc1ccc(C#N)c(Cl)c1 [Example 35, 2-Chloro-4-(2-ethyl-phenoxy)-benzonitrile] |  |  | 20 nM | 360 nM |
| C=CCc1ccccc1Oc1ccc(C#N)c(C(F)(F)F)c1 [Example 105, 4-(2-Allyl-phenoxy)-2-trifluoromethyl-benzonitrile] |  |  | 82 nM | > 1000 nM |
| N#Cc1ccc(Oc2ccc(F)cc2F)cc1C(F)(F)F [Example 115, 4-(2,4-Difluoro-phenoxy)-2-trifluoromethyl-benzonitrile] |  | 56 nM | 128 nM |  |
| COc1cccc(OC)c1Oc1ccc(C#N)cc1Cl [Example 26, 3-Chloro-4-(2,6-dimethoxy-phenoxy)-benzonitrile] | 106 nM | 54 nM |  |  |
| CC(C)c1ccccc1Oc1ccc(C#N)c(Cl)c1 [Example 39, 2-Chloro-4-(2-isopropyl-phenoxy)-benzonitrile] |  |  | 43 nM | 254 nM |
| N#Cc1ccc(Oc2c(F)cccc2F)c(Cl)c1 [Example 124, 3-Chloro-4-(2,6-difluoro-phenoxy)-benzonitrile] |  | 60 nM | 45 nM |  |
| N#Cc1ccc(Oc2cccc3ccccc23)cc1C(F)(F)F [Example 97, 4-(Naphthalen-1-yloxy)-2-trifluoromethyl-benzonitrile] |  |  | 100 nM | 554 nM |
| N#Cc1ccc(Oc2cccc(O)c2)cc1C(F)(F)F [Example 82, 4-(3-Hydroxy-phenoxy)-2-trifluoromethyl-benzonitrile] |  | 61 nM | 85 nM |  |
| CCc1ccccc1Oc1ccc(C#N)cc1Cl [Example 23, 3-Chloro-(2-ethyl-phenoxy)-benzonitrile] | 227 nM |  |  | > 1000 nM |
| COc1c(O)cccc1Oc1ccc(C#N)c(C(F)(F)F)c1 [Example 116, 4-(3-Hydroxy-2-methoxy-phenoxy)-2-trifluoromethyl-benzonitrile] |  | 3 nM | 30 nM |  |
| CCCC(=O)Nc1ccc(Oc2ccc(C#N)c(Cl)c2)cc1 [Example 61, N-[4-(3-Chloro-4-cyano-phenoxy)-phenyl]-butyramide] | 163 nM |  |  | 535 nM |
| N#Cc1ccc(Oc2cccc3c2CCCC3)cc1Cl [Example 32, 2-Chloro-4-(5,6,7,8-tetrahydro-naphthalen-1-yloxy)-benzonitrile] |  |  | 94 nM | 473 nM |
| Cc1cccc(Oc2ccc(C#N)c(Cl)c2)c1 [Example 41, 2-Chloro-4-m-tolyloxy-benzonitrile] |  |  | 86 nM | 120 nM |
| N#Cc1ccc(Oc2ccccc2C(F)(F)F)cc1Cl [Example 64, 4-(2-Trifluoromethyl-phenoxy)-2-chloro-benzonitrile] |  |  | 34 nM | 842 nM |
| COc1cccc(F)c1Oc1ccc(C#N)cc1Cl [Example 19, 3-Chloro-4-(2-fluoro-6-methoxy-phenoxy)-benzonitrile] |  | 52 nM | 28 nM |  |
| Cc1ccc(Oc2ccc(C#N)c(Cl)c2)c(C)c1 [Example 45, 2-Chloro-4-(2,4-dimethyl-phenoxy)-benzonitrile] |  |  | 25 nM | 721 nM |
| CC(O)c1cc(F)ccc1Oc1ccc(C#N)c(C(F)(F)F)c1 (stereo not shown) [Example 119, 4-[4-Fluoro-2-(1-hydroxy-ethyl)-phenoxy]-2-trifluoromethyl-benzonitrile] | 279 nM |  |  | 458 nM |
| N#Cc1ccc(Oc2ccc(C#N)c(C(F)(F)F)c2)cc1C#N [Example 100, 4-(4-Cyano-3-trifluoromethyl-phenoxy)-phthalonitrile] | 173 nM |  |  | 822 nM |
| COc1cc(C#N)ccc1Oc1ccccc1C [Example 125, 3-Methoxy-4-o-tolyloxy-benzonitrile] | 433 nM |  |  | 50 nM |
